Test results from US20030086923A1, “Method for the prevention and/or treatment of atherosclerosis” (priority 1999, published 2003).

Experiments:
[1] = tested on: THP-1 macrophages; assay: Stimulation of cholesterol efflux from cultured THP-1 macrophages; format: cell-based, human; settings: for EC50: Homo sapiens, THP-1
Description: Stimulation of Cholesterol Efflux from Cultured Cells
Patients with Tangier disease have mutations in the ABC1 gene and have very low HDL levels. Cultured cells from these patients are defective in cholesterol efflux (Francis et al. (1995) J. Clin. Invest. 96:78-87). Therefore, induction of ABC1 mRNA should lead to increased cholesterol efflux and increased HDL levels (Francis et al. (1999) Clinica Chimica Acta 286:219-230). TIIP-1 cells were used to determine whether induction of ABC1 mRNA by Compound 1 would increase cholesterol efflux. Specifically, cultured human THP-1 cells were stimulated to differentiate into macrophages by incubation with 100 nM tetradecanoyl phorbol acetate for three days, as described above. After differentiation, the TUP-1 macrophages were labeled with ^3H-cholesterol by incubation for 24 hours with 10 μCi/ml ^3H-cholesterol in Complete RPMI media containing 0.1% lipid-free bovine serum albumin (BSA) plus 100 nM tetradecanoyl phorbol acetate. After labeling, the cells were incubated for 24 hours in Complete RPMI media with 0.1% lipid-free bovine serum albumin (BSA) to allow for equilibration of cellular cholesterol pools. Cholesterol efflux was then measured over the following 24 hours by incubating the cells in Complete RPMI media containing 10 μg/ml of apoA-I as cholesterol acceptor, and either Compound 1 or DMSO as control.

[2] = tested on: LXR; assay: Activity on LXR (assay not specified)
[3] = tested on: ABC1 mRNA; assay: Induction of ABC1 mRNA levels in THP-1 macrophages; format: cell-based; settings: Homo sapiens, ABC-1, 15 μM, 6 hours, vs DMSO control, read-out: Fold Induction of ABC1 mRNA (Mean ± SEM)
Description: Induction of ABC1 mRNA levels
Cultured human THP-1 cells were used. All cell culture incubations were performed at 37° C. under 95% air/5% carbon dioxide. Cells were grown in Complete RPMI medium plus 10% FCS (Fetal Calf Serum). Complete RPMI medium is defined as RPMI medium (Sigma Cat.# R8005) containing […], 1 mM Na Pyruvate, 2 mM L-Glutamine, and Antibiotic-Antimyotic Solution (Sigma Cat.# A9909: 100U/ml Penicillin, 0.1 mg/ml Streptomycin, 0.251l/ml Amphotericin B). Cells were differentiated into macrophages by incubation in Complete RPMI medium plus 10% FCS (Fetal Calf Serum) plus 100 nM tetradecanoyl phorbol acetate for three days. After differentiation, the THP-1 macrophages were incubated in Complete RPMI medium plus 10% FCS (Fetal Calf Serum) with the test LXR agonist. After 6 hours at 37° C., the cells were harvested and total RNA prepared using the phenol/guanidine isothiocyanate method as supplied and described by Molecular Research Center, Inc. (TRI REAGENTφ Cat. No. TR 118). ABC1 mRNA levels in the total RNA were measured using the TaqMan® mRNA quantitation system, following protocols published by the manufacturer (Perkin-Elmer). The oligonucleotide PCR primers used to detect ABC1 were:
The oligonucleotide probe used was:
ABC1 mRNA levels in each sample were normalized to the mRNA levels for the 23 kDa highly basic protein. […]

[4] = target: T1, human GST-LXRα receptor (Homo sapiens, UniProt Q13133); assay: Radioligand competition binding scintillation proximity assay, LXRα
T1 construct: made in house; host or cells: E. coli (pGEX-KT vector)
T1 sequence (Q13133 164-447): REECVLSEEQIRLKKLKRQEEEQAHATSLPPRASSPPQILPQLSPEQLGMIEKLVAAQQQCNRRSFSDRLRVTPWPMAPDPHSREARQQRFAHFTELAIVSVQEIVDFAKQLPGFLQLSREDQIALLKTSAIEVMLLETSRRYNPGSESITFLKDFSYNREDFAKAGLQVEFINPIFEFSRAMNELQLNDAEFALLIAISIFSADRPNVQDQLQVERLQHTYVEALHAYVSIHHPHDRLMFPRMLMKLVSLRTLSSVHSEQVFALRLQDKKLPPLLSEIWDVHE
Description: (§1) Radioligand Competition Binding Scintillation Proximity Assays:
(§2) Preparation of Recombinant Human LXRα and LXRβ:
(§3) Human LXRα and LXRβ were expressed as GST-fusion proteins in E. coli. The ligand binding domain cDNAs for human LXRα (amino acids 164-447) and human LXRβ (amino acids 149-455) were subcloned into the pGEX-KT expression vector (Pharmacia). E. coli containing the respective plasmids were propagated, induced, and harvested by centrifugation. The resuspended pellet was broken in a French press and debris was removed by centrifugation. Recombinant human LXR receptors were purified by affinity chromatography on glutathione sepharose and receptor was eluted with glutathione. Glycerol was added to a final concentration of 50% to stabilize the receptor and aliquots were stored at −80° C.
(§4) After incubation for ˜16 h at 15° C. with shaking, the assay plates were counted in a Packard Topcount.

[5] = target: T2, human GST-LXRβ ligand binding domain receptor (Homo sapiens, UniProt P55055); assay: Radioligand competition binding scintillation proximity assay, LXRβ
T2 construct: human LXRβ (amino acids 149-455) were subcloned into the pGEX-KT expression vector; made in house; host or cells: E. coli (pGEX-KT vector)
T2 sequence (P55055 149-455): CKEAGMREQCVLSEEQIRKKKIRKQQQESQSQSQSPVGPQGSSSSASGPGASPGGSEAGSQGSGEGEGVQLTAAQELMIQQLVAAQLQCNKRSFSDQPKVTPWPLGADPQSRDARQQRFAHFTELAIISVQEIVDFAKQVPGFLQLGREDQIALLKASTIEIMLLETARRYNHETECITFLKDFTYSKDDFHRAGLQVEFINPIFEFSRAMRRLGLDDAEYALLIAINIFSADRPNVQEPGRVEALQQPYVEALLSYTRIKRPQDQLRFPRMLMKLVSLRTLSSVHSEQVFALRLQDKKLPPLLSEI
Description: as §1, §2, §3, §4

[6] = target: T3, LXRα-GAL4 fusion protein (Homo sapiens, UniProt Q13133); assay: LXRα/GAL4 transactivation assay in HEK-293 cells; format: cell-based; settings: 48 h
T3 construct: expressed in transfected cells; host or cells: HEK-293 (pcDNA3-LXRα/GAL4)
T3 sequence (Q13133 209-447 limits assumed): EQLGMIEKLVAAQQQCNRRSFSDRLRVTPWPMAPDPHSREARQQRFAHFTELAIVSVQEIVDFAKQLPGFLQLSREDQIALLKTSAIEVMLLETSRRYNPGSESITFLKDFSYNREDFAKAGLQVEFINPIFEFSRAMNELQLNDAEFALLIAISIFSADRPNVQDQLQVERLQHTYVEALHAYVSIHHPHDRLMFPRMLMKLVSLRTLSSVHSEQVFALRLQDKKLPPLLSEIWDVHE
Description: (§5) Expression constructs were prepared by inserting the ligand binding domain (LBD) of human LXRα and LXRβ cDNAs adjacent to the yeast GAL4 transcription factor DNA binding domain (DBD) in the mammalian expression vector pcDNA3 to create pcDNA3-LXRα/GAL4 and pcDNA3-LXRβ/GAL4, respectively. The GAL4-responsive reporter construct, pUAS(5×)-tk-luc, contained 5 copies of the GAL4 response element placed adjacent to the thymidine kinase minimal promoter and the luciferase reporter gene. The transfection control vector, pEGFP-N1, contained the Green Fluorescence Protein (GFP) gene under the regulation of the cytomegalovirus promoter.
(§6) HEK-293 cells were seeded at 40,000 cells/well in 96 well plates in Dulbecco's modified Eagle medium (high glucose) containing 10% charcoal stripped fetal calf serum (FCS), 100 units/ml Penicillin G and 100 μg/ml Streptomycin sulfate at 37° C. in a humidified atmosphere of 5% CO2. After 24 h, transfections were performed with Lipofectamine (Gibco-BRL, Gaithersburg, Md.) according to the instructions of the manufacturer. […] Luciferase activity in cell extracts was determined using Luciferase Assay Buffer (Promega) in a ML3000 luminometer (Dynatech Laboratories). GFP expression was determined using the Tecan Spectrofluor Plus at excitation wavelength of 485 nm and emission at 535 nm. […]

[7] = target: T4, LXRβ-GAL4 fusion protein (Homo sapiens, UniProt P55055); assay: LXRβ/GAL4 transactivation assay in HEK-293 cells; format: cell-based; settings: 48 h
T4 construct: expressed in transfected cells; host or cells: HEK-293 (pcDNA3-LXRβ/GAL4)
T4 sequence (P55055 222-460 limits assumed): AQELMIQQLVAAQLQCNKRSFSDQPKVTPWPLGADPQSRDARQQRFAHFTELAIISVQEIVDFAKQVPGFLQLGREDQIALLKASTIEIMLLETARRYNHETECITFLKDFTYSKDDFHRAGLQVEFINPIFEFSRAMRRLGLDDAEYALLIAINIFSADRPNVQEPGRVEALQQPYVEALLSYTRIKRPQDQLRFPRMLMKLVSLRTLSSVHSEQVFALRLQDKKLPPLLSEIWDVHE
Description: as §5, §6

[8] = HDL-raising activity in hamsters; format: in vivo, hamster; settings: oral gavage 10 mg per kg twice per day, seven days, p=0.01
Description: HDL-Raising Activity: Hamsters were given Compound 4 by oral gavage at 10 mg per kg body weight, twice per day, for seven days. Blood was then collected and serum HDL cholesterol measured.

In the case of `CC(C)CC[C@H](O)[C@@H](C)[C@H]1CC[C@H]2[C@@H]3CC=C4C[C@@H](O)CC[C@]4(C)[C@H]3CC[C@]12C` [22-(S)-hydroxy-cholesterol, reference compound], the “Stimulation of cholesterol efflux (in words)” value [1] is reported as “did not stimulate cholesterol efflux at all” and the “Activity on LXR (in words)” value [2] is reported as “inactive”.
With `CC(C)CC[C@@H](O)[C@@H](C)[C@H]1CC[C@H]2[C@@H]3CC=C4C[C@@H](O)CC[C@]4(C)[C@H]3CC[C@]12C` [Compound 2, 22(R)-hydroxycholesterol, reference compound] the fold induction at 15 µM [3] was 6.7 ± 1.2 and the “Stimulation of cholesterol efflux” value ([1]; 5 μM, p<0.001) was 57%.
For `CC(C)N(C(=O)[C@H]1CCC2C3CC=C4N(C)C(=O)CCC4(C)C3CCC21C)C(C)C` (stereo partly shown) [Compound 3], the IC50 [4] was 112 nM, the IC50 [5] was 442 nM and the EC50 [1] was 120 nM.
For `CCCc1c(OCCCN2C(=O)CCNC2=O)ccc2c(C(F)(F)F)noc12` [Compound 4, 4,5-Dihydro-1-(3-(3-trifluoromethyl-7-propyl-benzisoxazol-6-yloxy)propyl)-2,6-pyrimidinedione], the IC50 [4] was 1 nM, the IC50 [5] was 72 nM and the EC50 [6] was 183 nM. The EC50 [7] was 360 nM, the EC50 [1] was 63 nM and the “Increase of serum HDL cholesterol levels vs vehicle control” value [8] was 21%.
